Results published in PubChem BioAssay (NCI).
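Step 1: Grow cells in 96-well plates. Step 2: Expose to compound for 48 hours at 5 concentrations. Step 3: Interpolate endpoints linearly; if unreached, use highest concentration. TGI denotes the concentration required for complete inhibition of growth.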

Key:
Assay in all cases: DTP human tumour cell line panel, 48 h
HCT-15 colon = tested on: HCT-15 colon
K-562 leukemia = tested on: K-562 leukemia
KM12 colon = tested on: KM12 colon
MALME-3M melanoma = tested on: MALME-3M melanoma
NCI-H460 lung = tested on: NCI-H460 lung
OVCAR-3 ovarian = tested on: OVCAR-3 ovarian
SF-539 CNS = tested on: SF-539 CNS
SW-620 colon = tested on: SW-620 colon
UACC-62 melanoma = tested on: UACC-62 melanoma
UO-31 renal = tested on: UO-31 renal
EKVX NSCLC = tested on: EKVX NSCLC

## Nc1c(F)c(F)c2c(c1F)N(CCCCCl)c1ccccc1S2
HCT-15 colon
  TGI: > 100 µM
K-562 leukemia
  TGI: > 100 µM
KM12 colon
  TGI: > 100 µM
MALME-3M melanoma
  TGI: > 100 µM
NCI-H460 lung
  TGI: > 100 µM
OVCAR-3 ovarian
  TGI: > 100 µM
SF-539 CNS
  TGI: > 100 µM
SW-620 colon
  TGI: > 100 µM
UACC-62 melanoma
  TGI: > 100 µM
UO-31 renal
  TGI: > 100 µM

## O=c1ccn(C/C=C/c2ccccc2)c(=S)n1C/C=C/c1ccccc1
EKVX NSCLC
  TGI: > 100 µM
HCT-15 colon
  TGI: > 100 µM
K-562 leukemia
  TGI: > 100 µM
KM12 colon
  TGI: > 100 µM
MALME-3M melanoma
  TGI: > 100 µM
NCI-H460 lung
  TGI: > 100 µM
OVCAR-3 ovarian
  TGI: > 100 µM
SW-620 colon
  TGI: > 100 µM
UACC-62 melanoma
  TGI: > 100 µM
UO-31 renal
  TGI: > 100 µM

## CC1(C)CC(=O)c2c(-c3ccc(Cl)cc3)c(C#N)c(=S)n(C3OC(CO)C(O)C(O)C3O)c2C1 (stereo unspecified)
HCT-15 colon
  TGI: > 100 µM
K-562 leukemia
  TGI: 57.3 µM
KM12 colon
  TGI: > 100 µM
MALME-3M melanoma
  TGI: > 100 µM
NCI-H460 lung
  TGI: > 100 µM
OVCAR-3 ovarian
  TGI: 90.7 µM
SF-539 CNS
  TGI: > 100 µM
SW-620 colon
  TGI: > 100 µM
UACC-62 melanoma
  TGI: 41.6 µM
UO-31 renal
  TGI: 98.8 µM

## O=C1CSC(c2ccccc2)N1c1ccc(-c2ccc(-n3c(-c4ccccc4)nc4ccccc4c3=O)cc2)cc1 (stereo unspecified)
EKVX NSCLC
  TGI: > 100 µM
HCT-15 colon
  TGI: > 100 µM
K-562 leukemia
  TGI: > 100 µM
KM12 colon
  TGI: > 100 µM
MALME-3M melanoma
  TGI: > 100 µM
NCI-H460 lung
  TGI: > 100 µM
OVCAR-3 ovarian
  TGI: > 100 µM
SW-620 colon
  TGI: > 100 µM
UACC-62 melanoma
  TGI: > 100 µM
UO-31 renal
  TGI: > 100 µM

## CC(=O)N1C(c2[nH]c3ccccc3c2Cc2ccccc2)CCN1c1ccccc1 (stereo unspecified)
EKVX NSCLC
  TGI: > 10 µM
HCT-15 colon
  TGI: > 10 µM
K-562 leukemia
  TGI: > 10 µM
MALME-3M melanoma
  TGI: > 10 µM
NCI-H460 lung
  TGI: > 10 µM
OVCAR-3 ovarian
  TGI: > 10 µM
SF-539 CNS
  TGI: > 10 µM
SW-620 colon
  TGI: > 10 µM
UO-31 renal
  TGI: > 10 µM

## COc1ccc(/C=C2/SC(=Nc3ccccc3)N(NC(=O)Cc3ccccc3)C2=O)cc1
EKVX NSCLC
  TGI: > 100 µM
HCT-15 colon
  TGI: > 100 µM
K-562 leukemia
  TGI: > 100 µM
KM12 colon
  TGI: > 100 µM
NCI-H460 lung
  TGI: > 100 µM
OVCAR-3 ovarian
  TGI: > 100 µM
SF-539 CNS
  TGI: > 100 µM
SW-620 colon
  TGI: > 100 µM
UACC-62 melanoma
  TGI: > 100 µM
UO-31 renal
  TGI: > 100 µM

## CC(CC(=O)N1C2CC3CCC2(CS1(=O)=O)C3(C)C)[Si](C)(C)C (stereo unspecified)
EKVX NSCLC
  TGI: > 100 µM
HCT-15 colon
  TGI: > 100 µM
K-562 leukemia
  TGI: > 100 µM
KM12 colon
  TGI: > 100 µM
MALME-3M melanoma
  TGI: > 100 µM
NCI-H460 lung
  TGI: > 100 µM
OVCAR-3 ovarian
  TGI: > 100 µM
SF-539 CNS
  TGI: > 100 µM
SW-620 colon
  TGI: > 100 µM
UO-31 renal
  TGI: > 100 µM

## C1CSCCSCCSCCSCCS1
EKVX NSCLC
  TGI: > 100 µM
HCT-15 colon
  TGI: > 100 µM
K-562 leukemia
  TGI: > 100 µM
KM12 colon
  TGI: > 100 µM
NCI-H460 lung
  TGI: > 100 µM
OVCAR-3 ovarian
  TGI: > 100 µM
SF-539 CNS
  TGI: > 100 µM
SW-620 colon
  TGI: > 100 µM
UACC-62 melanoma
  TGI: > 100 µM
UO-31 renal
  TGI: > 100 µM

## CN(C)c1n2c3ccc([N+](=O)[O-])cc3n3c(N(C)C)[n+]4ccccc4c3c2c2cccc[n+]12
EKVX NSCLC
  TGI: > 100 µM
HCT-15 colon
  TGI: > 100 µM
K-562 leukemia
  TGI: > 100 µM
KM12 colon
  TGI: > 100 µM
MALME-3M melanoma
  TGI: > 100 µM
NCI-H460 lung
  TGI: > 100 µM
OVCAR-3 ovarian
  TGI: > 100 µM
SW-620 colon
  TGI: > 100 µM
UACC-62 melanoma
  TGI: > 100 µM
UO-31 renal
  TGI: > 100 µM

## CN1N=C(c2ccncc2)OC1c1cccc(F)c1 (stereo unspecified)
EKVX NSCLC
  TGI: > 100 µM
HCT-15 colon
  TGI: > 100 µM
K-562 leukemia
  TGI: > 100 µM
KM12 colon
  TGI: > 100 µM
NCI-H460 lung
  TGI: > 100 µM
OVCAR-3 ovarian
  TGI: > 100 µM
SF-539 CNS
  TGI: > 100 µM
SW-620 colon
  TGI: > 100 µM
UACC-62 melanoma
  TGI: > 100 µM
UO-31 renal
  TGI: > 100 µM

## CN1CCS(=O)(=O)NC(Cc2ccccc2)C(=O)N2CCCC2C1=O (stereo unspecified)
EKVX NSCLC
  TGI: > 100 µM
HCT-15 colon
  TGI: > 100 µM
K-562 leukemia
  TGI: > 100 µM
KM12 colon
  TGI: > 100 µM
MALME-3M melanoma
  TGI: > 100 µM
OVCAR-3 ovarian
  TGI: > 100 µM
SF-539 CNS
  TGI: > 100 µM
SW-620 colon
  TGI: > 100 µM
UACC-62 melanoma
  TGI: > 100 µM
UO-31 renal
  TGI: > 100 µM

## N#Cc1c(C#N)c(SSc2c(C#N)c(C#N)c(N)n2-c2cccc3ccccc23)n(-c2cccc3ccccc23)c1N
EKVX NSCLC
  TGI: 10.1 µM
HCT-15 colon
  TGI: 4.01 µM
K-562 leukemia
  TGI: > 100 µM
KM12 colon
  TGI: > 100 µM
MALME-3M melanoma
  TGI: 3.4 µM
NCI-H460 lung
  TGI: > 100 µM
SF-539 CNS
  TGI: 35.7 µM
SW-620 colon
  TGI: > 100 µM
UACC-62 melanoma
  TGI: 46.6 µM
UO-31 renal
  TGI: 6.02 µM

## C/C=C1\Oc2ccc(OC)cc2S1(=O)=O
EKVX NSCLC
  TGI: > 100 µM
HCT-15 colon
  TGI: > 100 µM
K-562 leukemia
  TGI: > 100 µM
KM12 colon
  TGI: > 100 µM
MALME-3M melanoma
  TGI: > 100 µM
NCI-H460 lung
  TGI: > 100 µM
OVCAR-3 ovarian
  TGI: > 100 µM
SW-620 colon
  TGI: > 100 µM
UACC-62 melanoma
  TGI: > 100 µM
UO-31 renal
  TGI: > 100 µM

## COP12(OC)NC(=O)OC1(C(F)(F)F)c1ccccc1O2 (stereo unspecified)
HCT-15 colon
  TGI: > 100 µM
K-562 leukemia
  TGI: > 100 µM
KM12 colon
  TGI: > 100 µM
MALME-3M melanoma
  TGI: > 100 µM
NCI-H460 lung
  TGI: > 100 µM
OVCAR-3 ovarian
  TGI: > 100 µM
SF-539 CNS
  TGI: > 100 µM
UACC-62 melanoma
  TGI: > 100 µM

## CCOC(=O)c1ccc(N=C2Sc3nc4ccccc4n3C2=Nc2ccc(C(=O)OCC)cc2)cc1
EKVX NSCLC
  TGI: > 100 µM
HCT-15 colon
  TGI: > 100 µM
KM12 colon
  TGI: > 100 µM
MALME-3M melanoma
  TGI: 51.8 µM
NCI-H460 lung
  TGI: 69.6 µM
OVCAR-3 ovarian
  TGI: 53.4 µM
SF-539 CNS
  TGI: 41.6 µM
SW-620 colon
  TGI: > 100 µM
UACC-62 melanoma
  TGI: 54.4 µM

## COc1ccc2nc3cccc([N+](=O)[O-])c3c(NCCC(=O)O)c2c1
EKVX NSCLC
  TGI: > 10 µM
HCT-15 colon
  TGI: > 10 µM
K-562 leukemia
  TGI: > 10 µM
KM12 colon
  TGI: > 10 µM
MALME-3M melanoma
  TGI: > 10 µM
NCI-H460 lung
  TGI: > 10 µM
OVCAR-3 ovarian
  TGI: > 10 µM
SF-539 CNS
  TGI: > 10 µM
SW-620 colon
  TGI: > 10 µM
UACC-62 melanoma
  TGI: > 10 µM

## O=C1CCC(=O)c2ccccc2N1
EKVX NSCLC
  TGI: > 100 µM
HCT-15 colon
  TGI: > 100 µM
K-562 leukemia
  TGI: > 100 µM
KM12 colon
  TGI: > 100 µM
MALME-3M melanoma
  TGI: > 100 µM
NCI-H460 lung
  TGI: > 100 µM
OVCAR-3 ovarian
  TGI: > 100 µM
SF-539 CNS
  TGI: > 100 µM
SW-620 colon
  TGI: > 100 µM
UO-31 renal
  TGI: > 100 µM

## Cc1cn(C2CC(O)C(Cn3nncc3Cn3cnc4c(N)ncnc43)O2)c(=O)[nH]c1=O (stereo unspecified)
EKVX NSCLC
  TGI: > 100 µM
HCT-15 colon
  TGI: > 100 µM
KM12 colon
  TGI: > 100 µM
MALME-3M melanoma
  TGI: > 100 µM
OVCAR-3 ovarian
  TGI: > 100 µM
SF-539 CNS
  TGI: > 100 µM
SW-620 colon
  TGI: > 100 µM
UACC-62 melanoma
  TGI: > 100 µM
UO-31 renal
  TGI: > 100 µM

## COc1nc(=O)[nH]c2c1C(c1ccc([N+](=O)[O-])cc1)c1c(OC)nc(=O)[nH]c1O2
EKVX NSCLC
  TGI: > 100 µM
HCT-15 colon
  TGI: > 100 µM
KM12 colon
  TGI: > 100 µM
NCI-H460 lung
  TGI: > 100 µM
OVCAR-3 ovarian
  TGI: > 100 µM
SW-620 colon
  TGI: > 100 µM
UACC-62 melanoma
  TGI: > 100 µM
UO-31 renal
  TGI: > 100 µM

## N#Cc1c(-c2ccccc2)cn(C(=O)c2ccccc2)c1N
EKVX NSCLC
  TGI: > 100 µM
HCT-15 colon
  TGI: > 100 µM
K-562 leukemia
  TGI: > 100 µM
KM12 colon
  TGI: > 100 µM
MALME-3M melanoma
  TGI: > 100 µM
OVCAR-3 ovarian
  TGI: > 100 µM
SW-620 colon
  TGI: > 100 µM
UACC-62 melanoma
  TGI: > 100 µM
UO-31 renal
  TGI: > 100 µM

## CN1C(=O)C(=Cc2ccc(Br)cc2)C(=O)N(C)C1=O
EKVX NSCLC
  TGI: > 100 µM
HCT-15 colon
  TGI: > 100 µM
K-562 leukemia
  TGI: > 100 µM
KM12 colon
  TGI: > 100 µM
NCI-H460 lung
  TGI: > 100 µM
OVCAR-3 ovarian
  TGI: > 100 µM
SW-620 colon
  TGI: > 100 µM
UACC-62 melanoma
  TGI: > 100 µM
UO-31 renal
  TGI: > 100 µM

## CCOC(=O)/C=C(/C(=O)OCC)n1ccc(=O)n(Cc2cn(CCCCOC(C)=O)nn2)c1=O
EKVX NSCLC
  TGI: > 100 µM
HCT-15 colon
  TGI: > 100 µM
K-562 leukemia
  TGI: > 100 µM
KM12 colon
  TGI: > 100 µM
NCI-H460 lung
  TGI: > 100 µM
OVCAR-3 ovarian
  TGI: > 100 µM
SF-539 CNS
  TGI: > 100 µM
SW-620 colon
  TGI: > 100 µM
UACC-62 melanoma
  TGI: > 100 µM
UO-31 renal
  TGI: > 100 µM
